Experimental data from PubChem BioAssay AID330 (DTP/NCI, 2004).
Values joined by “and” are separate entries in the source; they are usually repeats but may differ in a detail not shown here. Identical values can stand only once. Inconclusive results and toxic doses are left out. The calls were made as follows: active = survival T/C of 150% or more; inactive = T/C below 125% in these data.

Tested on: P388 leukemia ip, CD2F1 mice, survival T/C
Experiment: NCI In Vivo Anticancer Drug Screen. Data for tumor model P388 Leukemia (intraperitoneal) in CD2F1 (CDF1) mice
Conditions: endpoint: median survival time, higher = longer survival
Procedure, shortened: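 Mice carrying the transplanted tumor received test compound or vehicle. Survival was recorded in each group, and the value is the treated-group measurement divided by that of the vehicle-treated control group.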

[1] = dose: 50.0 mg/kg/injection, schedule: Q01DX005 (ip), vehicle: saline
[2] = dose: 100.0 mg/kg/injection, schedule: Q01DX005 (ip), vehicle: saline
[3] = dose: 200.0 mg/kg/injection, schedule: Q01DX005 (ip), vehicle: saline
[4] = dose: 100.0 mg/kg/injection, schedule: Q04DX003 (ip), vehicle: saline with Tween-80
[5] = dose: 200.0 mg/kg/injection, schedule: Q04DX003 (ip), vehicle: saline with Tween-80
[6] = dose: 400.0 mg/kg/injection, schedule: Q04DX003 (ip), vehicle: saline with Tween-80
[7] = dose: 50.0 mg/kg/injection, schedule: Q01DX009 (ip), vehicle: Klucel (hydroxypropylcellulose) (HPC)
[8] = dose: 100.0 mg/kg/injection, schedule: Q01DX009 (ip), vehicle: Klucel (hydroxypropylcellulose) (HPC)
[9] = dose: 200.0 mg/kg/injection, schedule: Q01DX009 (ip), vehicle: Klucel (hydroxypropylcellulose) (HPC)
[10] = dose: 400.0 mg/kg/injection, schedule: Q01DX009 (ip), vehicle: Klucel (hydroxypropylcellulose) (HPC)
[11] = dose: 60.0 mg/kg/injection, schedule: Q01DX005 (ip), vehicle: saline with Tween-80
[12] = dose: 120.0 mg/kg/injection, schedule: Q01DX005 (ip), vehicle: saline with Tween-80
[13] = dose: 240.0 mg/kg/injection, schedule: Q01DX005 (ip), vehicle: saline with Tween-80
[14] = dose: 50.0 mg/kg/injection, schedule: Q01DX009 (ip), vehicle: saline with Tween-80
[15] = dose: 100.0 mg/kg/injection, schedule: Q01DX009 (ip), vehicle: saline with Tween-80
[16] = dose: 200.0 mg/kg/injection, schedule: Q01DX009 (ip), vehicle: saline with Tween-80
[17] = dose: 50.0 mg/kg/injection, schedule: Q01DX005 (ip), vehicle: saline with Tween-80
[18] = dose: 50.0 mg/kg/injection, schedule: Q04DX003 (ip), vehicle: saline with Tween-80

Measured: T/C

CN(CCO)c1ncnc2c1cnn2C
inactive: [1] 100 % of control | [2] 101 % of control | [3] 100 % of control

Cc1cc(N/N=C/c2cccc3ccccc23)c2cc3c(cc2n1)OCO3
inactive: dose: 6.25 mg/kg/injection, schedule: Q01DX005 (ip), vehicle: Klucel (hydroxypropylcellulose) (HPC) 95 % of control | dose: 12.5 mg/kg/injection, schedule: Q01DX005 (ip), vehicle: Klucel (hydroxypropylcellulose) (HPC) 100 % of control | dose: 25.0 mg/kg/injection, schedule: Q01DX005 (ip), vehicle: Klucel (hydroxypropylcellulose) (HPC) 112 % of control

C1CSC(SCCCSC2SCCCS2)SC1
inactive: [4] 99 % of control | [5] 104 % of control | [6] 94 % of control

COc1cc2ccc3c[n+](C)ccc3c2cc1OC
inactive: dose: 6.25 mg/kg/injection, schedule: Q01DX009 (ip), vehicle: water 101 % of control and 103 % of control | dose: 12.5 mg/kg/injection, schedule: Q01DX009 (ip), vehicle: other 107 % of control | dose: 12.5 mg/kg/injection, schedule: Q01DX009 (ip), vehicle: water 114 % of control | dose: 25.0 mg/kg/injection, schedule: Q01DX009 (ip), vehicle: other 119 % of control | dose: 25.0 mg/kg/injection, schedule: Q01DX009 (ip), vehicle: water 116 % of control and 122 % of control | dose: 100.0 mg/kg/injection, schedule: Q01DX009 (ip), vehicle: water 108 % of control

Cc1[nH]c2ccc(N(C)C)cc2c(=O)c1CN(C)C
inactive: [7] 105 % of control | [8] 108 % of control

O=C(N/N=C/c1cc(Cl)cc(Cl)c1[O-])c1ccccc1.O=C(N/N=C/c1cc(Cl)cc(Cl)c1[O-])c1ccccc1.[Ni+2]
inactive: dose: 100.0 mg/kg/injection, schedule: Q01DX001 (ip), vehicle: saline with Tween-80 93 % of control | dose: 200.0 mg/kg/injection, schedule: Q01DX001 (ip), vehicle: saline with Tween-80 92 % of control | dose: 400.0 mg/kg/injection, schedule: Q01DX001 (ip), vehicle: saline with Tween-80 107 % of control

CC(=O)[O][Ge]([c]1ccccc1)([c]1ccccc1)[c]1ccccc1
inactive: [7] 107 % of control | [8] 107 % of control | [9] 107 % of control | [10] 96 % of control

COc1cc2c(cc1OC)C(C#N)(C(c1ccccc1)c1ccccc1)N(C(=O)c1ccccc1)C=C2 (stereo not drawn)
inactive: [11] 100 % of control | [12] 100 % of control | [13] 96 % of control

COc1cccc(C(=O)c2ccccc2C(=O)O)c1
inactive: dose: 50.0 mg/kg/injection, schedule: Q01DX005 (ip), vehicle: Klucel (hydroxypropylcellulose) (HPC) 101 % of control | dose: 100.0 mg/kg/injection, schedule: Q01DX005 (ip), vehicle: Klucel (hydroxypropylcellulose) (HPC) 105 % of control | dose: 200.0 mg/kg/injection, schedule: Q01DX005 (ip), vehicle: Klucel (hydroxypropylcellulose) (HPC) 103 % of control

CCCCC1(C#Cc2ccccc2)Sc2ccccc2N1C (stereo not drawn)
inactive: [11] 98 % of control | [12] 101 % of control | [13] 107 % of control

CC(=O)/C(C)=C/O
inactive: [1] 98 % of control | [2] 104 % of control | [3] 104 % of control

CC(CCCN)Nc1cc(O)cc2cccnc12 (stereo not drawn)
inactive: dose: 100.0 mg/kg/injection, schedule: Q01DX001 (ip), vehicle: saline 92 % of control | dose: 200.0 mg/kg/injection, schedule: Q01DX001 (ip), vehicle: saline 92 % of control | dose: 400.0 mg/kg/injection, schedule: Q01DX001 (ip), vehicle: saline 89 % of control

CC1CCC(=O)N1C (stereo not drawn)
inactive: dose: 100.0 mg/kg/injection, schedule: Q01DX009 (ip), vehicle: saline 105 % of control | dose: 200.0 mg/kg/injection, schedule: Q01DX009 (ip), vehicle: saline 100 % of control | dose: 400.0 mg/kg/injection, schedule: Q01DX009 (ip), vehicle: saline 113 % of control

CC(C)(C)c1cc(C(=O)[O-])c([OH2+])c(C(C)(C)C)c1.CC(C)(C)c1cc(C(=O)[O-])c([OH2+])c(C(C)(C)C)c1.[Mn+2]
inactive: [11] 106 % of control and 111 % of control | [12] 105 % of control and 121 % of control

O=C(O)C1CCC(=O)N1Cc1csc(-c2ccccc2)n1 (stereo not drawn)
inactive: [11] 103 % of control | [12] 93 % of control | [13] 99 % of control

Cc1ccc(-c2nc3ccccc3c(=O)n2/N=C/c2ccccc2O)cc1
inactive: [14] 101 % of control | [15] 100 % of control | [16] 93 % of control

COC(=O)c1ccnc2nc[nH]c12
inactive: dose: 100.0 mg/kg/injection, schedule: Q01DX001 (ip), vehicle: water 103 % of control | dose: 200.0 mg/kg/injection, schedule: Q01DX001 (ip), vehicle: water 104 % of control | dose: 400.0 mg/kg/injection, schedule: Q01DX001 (ip), vehicle: water 104 % of control

CC(C)C1CCC2(C)OC2C1=O (stereo not drawn)
inactive: dose: 25.0 mg/kg/injection, schedule: Q04DX002 (ip), vehicle: saline 100 % of control | dose: 50.0 mg/kg/injection, schedule: Q04DX002 (ip), vehicle: saline 98 % of control | dose: 100.0 mg/kg/injection, schedule: Q04DX002 (ip), vehicle: saline 100 % of control and 101 % of control | dose: 200.0 mg/kg/injection, schedule: Q04DX002 (ip), vehicle: saline 100 % of control | dose: 400.0 mg/kg/injection, schedule: Q04DX002 (ip), vehicle: saline 112 % of control

CCCCC(S)CS (stereo not drawn)
inactive: dose: 12.5 mg/kg/injection, schedule: Q01DX005 (ip), vehicle: saline with Tween-80 107 % of control | dose: 25.0 mg/kg/injection, schedule: Q01DX005 (ip), vehicle: saline with Tween-80 103 % of control | [17] 107 % of control and 110 % of control

O=C(O)CSCSCC(=O)O
inactive: dose: 100.0 mg/kg/injection, schedule: Q04DX003 (ip), vehicle: saline 100 % of control | dose: 200.0 mg/kg/injection, schedule: Q04DX003 (ip), vehicle: saline 104 % of control

CN(C)C(=O)Oc1ccc(Br)cc1
inactive: [14] 101 % of control | [15] 94 % of control | [16] 103 % of control

c1ccc(P2CCc3[nH]c4ccccc4c3C2)cc1 (stereo not drawn)
inactive: [18] 101 % of control | [4] 105 % of control and 110 % of control | [5] 103 % of control and 120 % of control | [6] 114 % of control

CC(=O)Oc1ccc2ccccc2c1-c1ccccn1
inactive: dose: 12.5 mg/kg/injection, schedule: Q01DX001 (ip), vehicle: saline + alcohol 101 % of control | dose: 25.0 mg/kg/injection, schedule: Q01DX001 (ip), vehicle: saline + alcohol 99 % of control | dose: 50.0 mg/kg/injection, schedule: Q01DX001 (ip), vehicle: saline + alcohol 100 % of control

CNC(=O)Oc1cccc(NC(=S)SC)c1
inactive: dose: 12.5 mg/kg/injection, schedule: Q04DX003 (ip), vehicle: saline with Tween-80 106 % of control | dose: 25.0 mg/kg/injection, schedule: Q04DX003 (ip), vehicle: saline with Tween-80 104 % of control | [18] 100 % of control | [4] 104 % of control

CCOC=Nc1c(N)ncnc1Cl
inactive: [8] 102 % of control | [9] 105 % of control | [10] 106 % of control

O=P(c1ccccc1)(c1ccccc1)c1ccccc1.O=P(c1ccccc1)(c1ccccc1)c1ccccc1.O=P(c1ccccc1)(c1ccccc1)c1ccccc1.O=P(c1ccccc1)(c1ccccc1)c1ccccc1.[Ni+2].[O-][Cl+3]([O-])([O-])O
inactive: dose: 12.5 mg/kg/injection, schedule: Q01DX009 (ip), vehicle: saline with Tween-80 96 % of control | dose: 25.0 mg/kg/injection, schedule: Q01DX009 (ip), vehicle: saline with Tween-80 101 % of control | [14] 90 % of control and 95 % of control

O=C1CSC(c2ccc([N+](=O)[O-])cc2[N+](=O)[O-])N1c1nncs1 (stereo not drawn)
inactive: [17] 95 % of control | dose: 100.0 mg/kg/injection, schedule: Q01DX005 (ip), vehicle: saline with Tween-80 95 % of control | dose: 200.0 mg/kg/injection, schedule: Q01DX005 (ip), vehicle: saline with Tween-80 95 % of control

CC1(/C=C/c2ccccc2)OCCO1
inactive: [14] 99 % of control | [15] 98 % of control | [16] 102 % of control

O=C1CCC2CC1CCC2=O
inactive: dose: 12.5 mg/kg/injection, schedule: Q01DX009 (ip), vehicle: Klucel (hydroxypropylcellulose) (HPC) 111 % of control | dose: 25.0 mg/kg/injection, schedule: Q01DX009 (ip), vehicle: Klucel (hydroxypropylcellulose) (HPC) 102 % of control | [7] 109 % of control | [8] 111 % of control
